Experimental data taken from patent US8058009B2, “Target protein and target gene in drug designing and screening method” (Reverse Proteomics Research Institute Co., Ltd., priority 2004, dated 2011).

Tests used:
FLJ31146-derived protein = molecular target: T1, FLJ31146-derived protein (Homo sapiens, UniProt Q9BSE4); experiment: Biacore S51 surface plasmon resonance binding to FLJ31146-derived protein
T1 construct: made in house; host or cells: wheat germ cell-free synthesis system (PROTEIOS, Toyobo)
T1 sequence (Q9BSE4 1-406): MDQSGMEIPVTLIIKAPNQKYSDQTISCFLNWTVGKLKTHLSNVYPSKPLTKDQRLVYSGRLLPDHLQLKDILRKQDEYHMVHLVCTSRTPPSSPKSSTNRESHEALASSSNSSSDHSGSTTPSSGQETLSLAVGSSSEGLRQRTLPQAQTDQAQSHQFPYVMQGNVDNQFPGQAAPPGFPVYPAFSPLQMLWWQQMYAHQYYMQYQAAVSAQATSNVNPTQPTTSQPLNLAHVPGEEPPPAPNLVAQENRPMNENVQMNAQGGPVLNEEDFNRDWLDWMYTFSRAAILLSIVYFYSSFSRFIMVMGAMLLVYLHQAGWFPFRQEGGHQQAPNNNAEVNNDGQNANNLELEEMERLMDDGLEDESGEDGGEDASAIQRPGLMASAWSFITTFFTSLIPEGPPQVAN
Protocol: (§1) A desired gene of a human full-length cDNA clone was BP-reacted with the PCR cloning vector Gateway pDONR201 using the Invitrogen Gateway system per the kit protocol to yield an entry vector. […]
(§2) The surface of the CM5 sensor chip for S51 commercially available from Biacore Company was subjected to an NTA treatment with 1 M EDC, 1.33 M NHS and 16 mg/ml AB-NTA (pH 9.2) to prepare an NTA sensor chip for S51. […] A correction for the effect of DMSO contained in the compound solutions and running buffer (solvent correction) was performed on the basis of measured results from separately prepared solutions mimicking the running buffer, and containing 3.8 to 5.1% of DMSO (8 points). The compound characterization assay program for Biacore S51 was performed to measure the interactions between immobilized ligands (proteins) and analytes (compounds; 62.5 μM to 0.244 μM), and the results were analyzed using a dedicated software program. […]

FLJ10335-derived protein = molecular target: T2, FLJ10335-derived protein (Homo sapiens, UniProt Q9NW38, S77P); experiment: Biacore S51 surface plasmon resonance binding to FLJ10335-derived protein
T2 construct: made in house; host or cells: wheat germ cell-free synthesis system (PROTEIOS, Toyobo)
T2 sequence (Q9NW38 1-375 S77P): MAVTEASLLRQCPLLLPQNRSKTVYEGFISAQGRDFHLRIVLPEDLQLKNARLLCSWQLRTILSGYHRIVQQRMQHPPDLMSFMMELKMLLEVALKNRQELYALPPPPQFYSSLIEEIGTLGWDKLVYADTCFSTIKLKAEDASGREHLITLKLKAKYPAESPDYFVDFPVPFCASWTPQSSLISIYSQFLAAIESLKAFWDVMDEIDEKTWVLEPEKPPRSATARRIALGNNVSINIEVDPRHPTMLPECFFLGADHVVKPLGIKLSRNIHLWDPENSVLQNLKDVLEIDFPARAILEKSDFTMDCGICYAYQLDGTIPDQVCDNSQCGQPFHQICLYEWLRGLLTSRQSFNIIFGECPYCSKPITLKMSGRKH
Protocol: as §1, §2

FLJ14467-derived protein = molecular target: T3, FLJ14467-derived protein (Homo sapiens, UniProt Q9HB40); experiment: Biacore S51 surface plasmon resonance binding to FLJ14467-derived protein
T3 construct: made in house; host or cells: wheat germ cell-free synthesis system (PROTEIOS, Toyobo)
T3 sequence (Q9HB40 27-452): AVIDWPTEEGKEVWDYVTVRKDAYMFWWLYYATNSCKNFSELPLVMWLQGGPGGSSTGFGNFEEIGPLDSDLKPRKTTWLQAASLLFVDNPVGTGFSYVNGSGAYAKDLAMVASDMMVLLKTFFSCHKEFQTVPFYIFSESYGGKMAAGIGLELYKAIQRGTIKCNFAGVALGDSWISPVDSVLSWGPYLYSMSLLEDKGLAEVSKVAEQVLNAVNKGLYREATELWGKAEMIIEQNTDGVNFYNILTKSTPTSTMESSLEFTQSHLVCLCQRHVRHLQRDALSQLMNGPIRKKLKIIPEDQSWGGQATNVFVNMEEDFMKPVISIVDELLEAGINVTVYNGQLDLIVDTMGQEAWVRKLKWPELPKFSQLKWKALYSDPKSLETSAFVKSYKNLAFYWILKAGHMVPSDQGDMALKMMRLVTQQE
Protocol: as §1, §2

FLJ11474-derived protein = molecular target: T4, FLJ11474-derived protein (Homo sapiens, UniProt Q9BVC4); experiment: Biacore S51 surface plasmon resonance binding to FLJ11474-derived protein
T4 construct: made in house; host or cells: wheat germ cell-free synthesis system (PROTEIOS, Toyobo)
T4 sequence (Q9BVC4 1-325 isoform Q9BVC4-5): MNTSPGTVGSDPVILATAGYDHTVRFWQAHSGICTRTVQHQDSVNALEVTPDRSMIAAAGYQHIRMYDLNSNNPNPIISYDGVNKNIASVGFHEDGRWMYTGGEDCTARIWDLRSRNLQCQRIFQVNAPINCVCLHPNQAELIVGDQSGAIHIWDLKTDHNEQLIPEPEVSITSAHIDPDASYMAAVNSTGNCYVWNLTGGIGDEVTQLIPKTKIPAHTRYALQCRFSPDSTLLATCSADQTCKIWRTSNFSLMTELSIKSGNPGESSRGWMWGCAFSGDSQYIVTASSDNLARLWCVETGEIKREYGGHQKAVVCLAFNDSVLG
Protocol: as §1, §2

FLJ11045-derived protein = molecular target: T5, FLJ11045-derived protein (Homo sapiens, UniProt Q9BXT8, E1380K); experiment: Biacore S51 surface plasmon resonance binding to FLJ11045-derived protein
T5 construct: made in house; host or cells: wheat germ cell-free synthesis system (PROTEIOS, Toyobo)
T5 sequence (Q9BXT8 949-1581 isoform Q9BXT8-4 E1338K): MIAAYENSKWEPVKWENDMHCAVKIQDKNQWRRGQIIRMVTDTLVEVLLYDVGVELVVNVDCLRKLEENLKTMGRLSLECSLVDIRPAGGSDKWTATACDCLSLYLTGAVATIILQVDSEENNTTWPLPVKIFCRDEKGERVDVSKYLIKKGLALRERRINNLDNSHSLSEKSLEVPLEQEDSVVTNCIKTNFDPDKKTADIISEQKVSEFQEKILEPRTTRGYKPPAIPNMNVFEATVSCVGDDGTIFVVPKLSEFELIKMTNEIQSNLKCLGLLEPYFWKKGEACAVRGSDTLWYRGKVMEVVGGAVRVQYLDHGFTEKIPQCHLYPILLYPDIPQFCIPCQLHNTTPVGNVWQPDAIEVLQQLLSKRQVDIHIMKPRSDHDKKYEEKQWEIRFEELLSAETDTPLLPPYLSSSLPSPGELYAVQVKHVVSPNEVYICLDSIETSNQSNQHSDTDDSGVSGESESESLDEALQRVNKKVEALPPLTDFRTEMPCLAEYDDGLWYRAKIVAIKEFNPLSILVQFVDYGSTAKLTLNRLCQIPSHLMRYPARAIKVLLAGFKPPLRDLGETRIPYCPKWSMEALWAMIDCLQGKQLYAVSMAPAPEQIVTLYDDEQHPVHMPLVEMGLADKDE
Source text: A desired gene of a human full-length cDNA clone was BP-reacted with the PCR cloning vector Gateway pDONR201 using the Invitrogen Gateway system per the kit protocol to yield an entry vector. As the destination vector for the Gateway system, a Gateway cassette having a Gateway recombinant sequence was introduced to allow the utilization of the Gateway system on the basis of pEU3-NII (Toyobo), which matches with a cell-free protein synthesis system (PROTEIOS) of Toyobo Co., Ltd., which employs a wheat germ extract, and a double tag destination vector modified using the PCR method to allow the expression of a peptide having a histidine tag and a FLAG tag sequence in the N-terminal region of the expressed protein was prepared.
The prepared double tag destination vector and entry vector were […] using the Invitrogen Gateway system per the protocol and the Escherichia coli competent cell DH5α was transformed therewith; a clone incorporating the expression vector was selected. A plasmid was prepared from the obtained clone using the QIAfilter Midi kit (QUIAGEN) per the kit protocol. The plasmid obtained was subjected to phenol/chloroform treatment per the protocol for PROTEIOS (Toyobo) to inactivate the RNase to yield a purified expression plasmid.
A recombinant protein was synthesized using a cell-free protein synthesis system (PROTEIOS) of Toyobo Co., Ltd., which employs a wheat germ extract. Subsequently, mRNA was prepared from the expression plasmid acquired by the method described in section 1 above per the protocol for PROTEIOS. With 20 μg of the mRNA acquired, a protein was synthesized per the protocol for PROTEIOS using two wells of a 96-well microtiter plate. The protein synthesized was subjected to high-speed centrifugation, the precipitate was removed, and the resulting soluble fraction was purified using ANTI-FLAG M2 Affinity Gel (SIGMA Company) having an anti-FLAG tag antibody immobilized hereto per the protocol, to yield a purified protein.
as §2

FLJ14797-derived protein = molecular target: T6, FLJ14797-derived protein (Homo sapiens, UniProt Q9UGJ1); experiment: Biacore S51 surface plasmon resonance binding to FLJ14797-derived protein
T6 construct: made in house; host or cells: wheat germ cell-free synthesis system (PROTEIOS, Toyobo)
T6 sequence (Q9UGJ1 whole entry): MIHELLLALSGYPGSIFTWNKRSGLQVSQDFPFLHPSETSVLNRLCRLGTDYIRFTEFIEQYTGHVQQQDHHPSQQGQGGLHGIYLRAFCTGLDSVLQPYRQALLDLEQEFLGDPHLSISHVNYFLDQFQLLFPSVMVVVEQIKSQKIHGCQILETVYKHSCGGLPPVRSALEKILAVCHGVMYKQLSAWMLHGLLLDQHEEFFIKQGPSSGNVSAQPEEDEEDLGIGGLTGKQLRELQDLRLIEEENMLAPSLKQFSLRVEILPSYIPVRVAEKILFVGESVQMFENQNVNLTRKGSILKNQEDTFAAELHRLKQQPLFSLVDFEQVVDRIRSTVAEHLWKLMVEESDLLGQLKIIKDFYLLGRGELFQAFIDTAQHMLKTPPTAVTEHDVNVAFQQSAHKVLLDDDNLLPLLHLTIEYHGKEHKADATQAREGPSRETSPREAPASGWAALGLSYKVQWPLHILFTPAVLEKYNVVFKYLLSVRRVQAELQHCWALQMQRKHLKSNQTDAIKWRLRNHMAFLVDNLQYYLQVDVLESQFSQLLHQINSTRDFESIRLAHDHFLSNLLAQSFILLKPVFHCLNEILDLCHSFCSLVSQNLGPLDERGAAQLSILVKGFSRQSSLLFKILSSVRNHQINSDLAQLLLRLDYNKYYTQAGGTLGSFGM
Protocol: as §1, §2

CC1(C)S[C@@H]2[C@H](NC(=O)[C@H](N)c3ccccc3)C(=O)N2[C@H]1C(=O)O [ampicillin]
interaction with the protein (binding level dose-proportional, saturated at high doses) (FLJ31146-derived protein): interact specifically

N[C@@H](C(=O)N[C@@H]1C(=O)N2C(C(=O)O)=C(Cl)CS[C@H]12)c1ccccc1 [cefaclor]
interaction with the protein (binding level dose-proportional, saturated at high doses) (FLJ10335-derived protein): interact specifically
interaction with the protein (binding level dose-proportional, saturated at high doses) (FLJ14467-derived protein): interact specifically
interaction with the protein (binding level dose-proportional, saturated at high doses) (FLJ11474-derived protein): interact specifically
Kd (FLJ11045-derived protein; Biacore S51, immobilized FLJ11045-derived protein, analyte 62.5 μM to 0.244 μM, read-out: binding dissociation constant Kd): 12.4 µM
interaction with the protein (binding level dose-proportional, saturated at high doses) (FLJ11045-derived protein; FLJ11045-derived protein, Biacore S51): interact specifically

O=C(c1ccc(F)cc1)C1CCN(CCn2c(=O)[nH]c3ccccc3c2=O)CC1 [ketanserin]
interaction with the protein (binding level dose-proportional, saturated at high doses) (FLJ14797-derived protein): interact specifically
